Tests used:
[1] = tested on: tumour cell proliferation; assay: Inhibition of tumour cell proliferation in vitro; format: cell-based
[2] = in vivo; cited from earlier work
[3] = Half life on administration to man; conditions: in vivo
[4] = biological target: alpha-folate receptor (FR-α) (Homo sapiens, UniProt P15328); conditions: relative to folic acid; Theti et al., 2003; cited from earlier work
[5] = Phase I trial EudraCT3941 (Example 1): safety and toxicity; format: in vivo, human
Text: (§1) Methods: A 3+3 dose escalation design was used and two IV schedules were explored. Schedule A, weekly dosing (QW) and schedule B, once every 2 weeks dosing (Q2W). A cycle consisted of 4 weeks and treatment was stopped after 6 cycles in both schedules. An expansion cohort to evaluate clinical activity in patients with FR-α overexpressing high grade serous ovarian cancer (HGSOC) was initiated.

thymidylate synthase = biological target: T1, thymidylate synthase (Homo sapiens, UniProt P04818); assay: FLT PET imaging of thymidylate synthase inhibition in trial patients; conditions: in vivo
T1 construct: from tissue; host or cells: tumour tissue of trial patients, in vivo
T1 sequence (P04818 2-313 limits assumed): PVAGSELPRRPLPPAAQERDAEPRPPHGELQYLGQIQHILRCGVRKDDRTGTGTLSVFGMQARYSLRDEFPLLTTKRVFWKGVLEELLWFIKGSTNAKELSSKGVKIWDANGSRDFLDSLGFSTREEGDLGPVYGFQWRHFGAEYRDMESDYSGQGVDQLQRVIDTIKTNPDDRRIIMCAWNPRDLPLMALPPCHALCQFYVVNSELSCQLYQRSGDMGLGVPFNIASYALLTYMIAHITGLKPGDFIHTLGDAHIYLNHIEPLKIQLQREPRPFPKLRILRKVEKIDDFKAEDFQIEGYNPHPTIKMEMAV
Text: 3827-3834. 2008 (Pillai et al).

[6] = Phase I trial EudraCT3941 (Example 1): pharmacokinetics; format: in vivo, human
Text: as §1

[7] = biological target: T2, folylpolyglutamate synthase (FPGS) (Homo sapiens, UniProt Q05932); conditions: cited from earlier work
T2 sequence (Q05932 43-587): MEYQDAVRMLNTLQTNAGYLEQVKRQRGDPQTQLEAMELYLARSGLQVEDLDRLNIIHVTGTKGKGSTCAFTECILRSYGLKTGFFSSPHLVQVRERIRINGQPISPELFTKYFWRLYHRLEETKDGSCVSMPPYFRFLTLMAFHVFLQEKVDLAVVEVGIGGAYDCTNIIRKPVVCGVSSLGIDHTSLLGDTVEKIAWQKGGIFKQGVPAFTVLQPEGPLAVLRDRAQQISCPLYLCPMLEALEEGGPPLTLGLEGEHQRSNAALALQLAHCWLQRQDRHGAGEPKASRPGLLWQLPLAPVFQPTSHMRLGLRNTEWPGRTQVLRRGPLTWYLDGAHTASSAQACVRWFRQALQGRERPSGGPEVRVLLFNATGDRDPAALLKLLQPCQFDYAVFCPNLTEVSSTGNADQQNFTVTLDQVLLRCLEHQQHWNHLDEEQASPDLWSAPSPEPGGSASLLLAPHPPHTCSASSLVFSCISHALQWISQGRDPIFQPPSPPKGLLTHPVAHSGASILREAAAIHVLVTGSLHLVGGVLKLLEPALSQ

[8] = tested on: high grade serous ovarian cancer (HGSOC); assay: Phase I trial EudraCT3941 (Example 1): tumour response (RECIST partial responses); format: in vivo, human
Text: as §1

[9] = biological target: thymidylate synthase (TS); conditions: read-out: Ki against isolated target thymidine synthase; cited from earlier work
[10] = tested on: reduced folate carrier (RFC); conditions: except at high concentrations; Gibbs et al., 2005; cited from earlier work
[11] = in vivo; cited from earlier work; remark: listed apart in the source
[12] = tested on: platinum-sensitive epithelial ovarian cancer; conditions: 1,100 patient Phase III, with paclitaxel and carboplatin; cited from earlier work
[13] = tested on: platinum resistant epithelial ovarian cancer; conditions: 6 mg/kg every three weeks, cited from earlier work
[14] = expansion cohort, archival samples analysed

alpha-folate receptor (FR-α), sequence (P15328 25-234, species assumed): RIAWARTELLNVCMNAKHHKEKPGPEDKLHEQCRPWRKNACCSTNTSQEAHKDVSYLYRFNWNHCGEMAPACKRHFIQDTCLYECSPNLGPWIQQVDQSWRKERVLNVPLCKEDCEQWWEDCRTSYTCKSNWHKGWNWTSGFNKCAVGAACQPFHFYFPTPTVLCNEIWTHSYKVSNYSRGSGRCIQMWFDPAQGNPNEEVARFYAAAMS

C#CCN(c1ccc(C(=O)N[C@@H](CCC(=O)N[C@H](CCC(=O)O)C(=O)O)C(=O)O)cc1)[C@H]1CCc2cc3nc(CO)[nH]c(=O)c3cc21 [BTG945, N—{N-{4-[N-((6S)-2-Hydroxymethyl-4-oxo-3,4,7,8-tetrahydro-6H-cyclo-penta[g]quinazolin-6-yl)-N-(prop-2-ynyl)amino]benzoyl}-L-γ-glutamyl}-D-glutamic acid]
inhibition of tumour cell proliferation in vitro [1]: concentration and time-dependent inhibition
dose at which toxicity occurred (incidence of BOOP) [2]: 45 mg/m^2
half life levels on administration to man [3]: unusually long
affinity for α-FR as % of folic acid (FA) [4]: 70%
grade 3-4 diarrhea, mucositis or neutropenia ([5]; human, in vivo, 24 weeks): No grade 3-4 diarrhea, mucositis or neutropenia
incidence of dysgeusia ([5]; human, in vivo, 24 weeks): 12%
incidence of fatigue ([5]; human, in vivo, 24 weeks): 36%
incidence of nausea ([5]; human, in vivo, 24 weeks): 21%
cases of suspected drug-related drop in Dlco ([5]; in vivo): No cases
conventional toxicities of cytotoxic chemotherapy (myelotoxicity, nephrotoxicity, neurotoxicity) ([5]; in vivo): not observed
dose limiting effects other than BOOP ([5]; in vivo): not seen
occurrence of treatment limiting BOOP ([5]; in vivo): without occurrence
side effects associated with α-folate receptor antibody conjugates (diarrhoea, blurred vision, nausea) ([5]; in vivo): not observed
side effects normally associated with thymidine synthase inhibitors (neutropenia, diarrhoea, hair loss) ([5]; in vivo): not observed
dose limiting toxicity ([5]; schedule A, weekly IV dosing (QW), 1-6 mg/m^2): G3 cellulitis
dose limiting toxicity ([5]; schedule B, IV once every 2 weeks (Q2W), 2-12 mg/m^2): no dose limiting toxicity
thymidylate synthase inhibition by FLT PET imaging (thymidylate synthase): Evidence of thymidylate synthase inhibition
period for which concentrations above 0.5 μM were achieved ([6]; doses above 6 mg/m^2): 72 h
period for which concentrations between 0.05-1 μM were achieved ([6]; doses of 4 mg/m^2 and above): 48 h
AUC ([6]; human, in vivo, iv, 12 mg/m2): 85200 ng·h/mL
Cmax ([6]; human, in vivo, iv, 12 mg/m2): 4950 ng/mL
half-life ([6]; human, in vivo, iv, 12 mg/m2): 26 h
substrate for FPGS [7]: not a substrate
patients with HGSOC with partial responses (PRs) ([8]; dose escalation cohort): 5 patients
patients with PRs ([8]; expansion cohort, HGSOC, 12 mg/m^2 Q2W): 5/11
AFR+ve patients with PR [8, 14]: 4/4
AFR−ve patients who did not have a PR [8, 14]: 4/4
Ki [9]: 1.2 nM
affinity for reduced folate carrier (RFC) [10]: negligible affinity

C#CCN(Cc1cc2c(=O)[nH]c(C)nc2cc1C)c1ccc(C(=O)N[C@@H](CCc2nnn[nH]2)C(=O)O)c(F)c1 [Plevitrexed, plevitrexed]
half-life in plasma [11]: long
substrate for FPGS [7]: not a substrate

Cc1nc2ccc(CN(C)c3ccc(C(=O)N[C@@H](CCC(=O)O)C(=O)O)s3)cc2c(=O)[nH]1 [Raltitrexed, raltitrexed]
half-life in plasma [11]: fairly short
substrate for FPGS [7]: excellent substrates

Nc1nc2[nH]cc(CCc3ccc(C(=O)N[C@@H](CCC(=O)O)C(=O)O)cc3)c2c(=O)[nH]1 [pemetrexed]
half-life in plasma [11]: fairly short
substrate for FPGS [7]: excellent substrates

Farletuzumab: FR-α targeted monoclonal antibody
progression free survival (PFS) [12]: failed to improve progression free survival

IMGN853: Antibody-drug conjugate, FR-α targeted
share of patients with three or less prior lines of therapy showing this outcome [13]: 39%
PFS ([13]; patients with three or less prior lines of therapy): 6.7 months

— patent US12128045B2, “Platinum-resistant cancer treatment” (BTG International Limited, priority 2017, dated 2024)
